Test: Chloride analysis of decomposition deposit of Clomethiazol-Base kept 7 days at 70° C.
Type: physicochemical
Details: deposit after 7 days at 70° C., washed with benzene
Procedure: Freshly distilled Clomethiazol-Base was kept for 7 days at 70° C., and the precipitated brown deposit (decomposition products) was washed with benzene and analyzed.

## Cc1ncsc1CCCl [CMT-Base, 4-Methyl-5-(2'-Chlorethyl)-thiazol]
  total chloride greater than the sum of free chloride and chloride of occluded CMT-Base and CMT-HCl (chloride surplus): 17%

From patent publication US4247702A, “Method of stabilizing 4-methyl-5-(2'chloroethyl)-thiazol” (Pharmaceutical Licences Company Ltd., priority 1978, dated 1981)
